Measurements: patent US20130096141A1, “BICYCLIC HETEROCYCLE DERIVATIVES AND METHODS OF USE THEREOF” (priority 2010, published 2013)

Biological target: T1, GPR119 receptor (Homo sapiens, UniProt Q8TDV5)
T1 construct: expressed in transfected cells
T1 sequence (Q8TDV5 1-335): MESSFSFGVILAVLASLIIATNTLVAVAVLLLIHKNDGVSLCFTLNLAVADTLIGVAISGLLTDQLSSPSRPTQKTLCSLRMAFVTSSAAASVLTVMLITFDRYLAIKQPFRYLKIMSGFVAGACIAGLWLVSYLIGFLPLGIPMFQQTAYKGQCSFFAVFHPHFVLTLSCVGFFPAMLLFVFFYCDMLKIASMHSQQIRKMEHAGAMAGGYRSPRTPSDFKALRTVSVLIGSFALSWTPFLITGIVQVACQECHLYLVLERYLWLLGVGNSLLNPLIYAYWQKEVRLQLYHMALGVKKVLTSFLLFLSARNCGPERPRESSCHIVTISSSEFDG
Experiment: cAMP assay in cells transfected with the GPR119 receptor (human)
Assay type: cell-based
Settings: increase in intracellular cAMP, read-out: h-cAMP EC50
Description: The activity of these compounds may be assayed in cells transfected the GPR119 receptor (human, mouse, rat or monkey). Incubation with the above compounds results in an increase in intracellular cAMP, from which an EC50 value may be calculated. Ki values for compounds at this receptor can be determined by employing a radio-labeled agonist. In vivo activity can be determined by conducting an oral glucose-tolerance test in an appropriate species, such as mouse.

SMILES	EC50
CC(C)(C)OC(=O)N1CC2COCC(C1)C2Oc1ncnc2c(-c3ccc(C#N)cc3F)csc12 (stereo not shown) [Example 1]	8 nM
CC(C)(C)OC(=O)N1CC2COCC(C1)C2Oc1ncnc2c(-c3ccc(S(C)(=O)=O)cc3F)csc12 (stereo not shown) [Example 2]	62 nM
CC1(OC(=O)N2CC3COCC(C2)C3Oc2ncnc3c(-c4ccc(C#N)cc4F)csc23)CC1 (stereo not shown) [Example 3]	9 nM
CS(=O)(=O)c1ccc(-c2csc3c(OC4C5COCC4CN(c4ncc(Cl)cn4)C5)ncnc23)c(F)c1 (stereo not shown) [Example 4]	23 nM
CC(C)(C)OC(=O)N1CC2COCC(C1)C2Oc1ncnc2c(-c3ccc(F)cc3F)csc12 (stereo not shown) [Example 5]	18 nM
CC1(OC(=O)N2CC3COCC(C2)C3Oc2ncnc3c(-c4ccc(F)cc4F)csc23)CC1 (stereo not shown) [Example 6]	16 nM
CS(=O)(=O)c1ccc(-c2csc3c(OC4C5COCC4CN(c4ncc(F)cn4)C5)ncnc23)c(F)c1 (stereo not shown) [Example 7]	47 nM
CCCc1cnc(N2CC3COCC(C2)C3Oc2ncnc3c(-c4ccc(S(C)(=O)=O)cc4F)csc23)nc1 (stereo not shown) [Example 8]	150 nM
CC(C)(C)OC(=O)N1CC2COCC(C1)C2Oc1ncnc2c(-c3ccc(C#N)cc3Cl)csc12 (stereo not shown) [Example 9]	47 nM
CC1(OC(=O)N2CC3COCC(C2)C3Oc2ncnc3c(-c4ccc(C#N)cc4Cl)csc23)CC1 (stereo not shown) [Example 10]	24 nM
N#Cc1ccc(-c2csc3c(OC4C5COCC4CN(c4ncc(Cl)cn4)C5)ncnc23)c(Cl)c1 (stereo not shown) [Example 11]	18 nM
CC1(OC(=O)N2CC3COCC(C2)C3Oc2ncnc3c(-c4ccc(C(=O)C5CC5)cc4Cl)csc23)CC1 (stereo not shown) [Example 12]	86 nM
CC1(OC(=O)N2CC3COCC(C2)C3Oc2ncnc3c(-c4ccc(C#N)cc4F)c[nH]c23)CC1 (stereo not shown) [Example 14]	298 nM
CS(=O)(=O)c1ccc(-c2c[nH]c3c(OC4C5COCC4CN(c4ncc(Cl)cn4)C5)ncnc23)c(F)c1 (stereo not shown) [Example 16]	247 nM
Cn1cc(-c2ccc(C#N)cc2F)c2ncnc(OC3C4COCC3CN(C(=O)OC3(C)CC3)C4)c21 (stereo not shown) [Example 17]	13 nM
Cn1cc(-c2ccc(S(C)(=O)=O)cc2F)c2ncnc(OC3C4COCC3CN(c3ncc(Cl)cn3)C4)c21 (stereo not shown) [Example 21]	5.3 nM
COc1ccc(-c2csc3c(OC4C5COCC4CN(c4ncc(Cl)cn4)C5)ncnc23)c(F)c1 (stereo not shown) [Example 28]	2.1 nM
Cn1cc(-c2ccc(F)cc2F)c2ncnc(OC3C4COCC3CN(C(=O)OC3(C)CC3)C4)c21 (stereo not shown) [Example 31]	8.4 nM
COc1ccc(-c2cn(C)c3c(OC4C5COCC4CN(C(=O)OC4(C)CC4)C5)ncnc23)c(F)c1 (stereo not shown) [Example 32]	5.7 nM
Fc1ccc(-c2csc3c(OC4C5COCC4CN(CC(F)(F)C(F)(F)F)C5)ncnc23)c(F)c1 (stereo not shown) [Example 34]	72 nM
COc1ccc(-c2csc3c(OC4C5COCC4CN(CC(F)(F)C(F)(F)F)C5)ncnc23)c(F)c1 (stereo not shown) [Example 35]	45 nM
N#Cc1ccc(-c2csc3c(OC4C5COCC4CN(CC(F)(F)C(F)(F)F)C5)ncnc23)c(Cl)c1 (stereo not shown) [Example 36]	35 nM
COC(=O)COc1ccc(-c2csc3c(OC4C5COCC4CN(C(=O)OC4(C)CC4)C5)ncnc23)c(F)c1 (stereo not shown) [Example 46]	2.5 nM
CC1(OC(=O)N2CC3COCC(C2)C3Oc2ncnc3c(-c4ccc(S(C)(=O)=O)cc4)csc23)CC1 (stereo not shown) [Example 50]	2.2 nM

Now those with a lower EC50, led by results:

EC50	SMILES
2 nM	CC1(OC(=O)N2CC3COCC(C2)C3Oc2ncnc3c(-c4ccc(Cl)cc4F)csc23)CC1 (stereo not shown) [Example 22]
1.7 nM	Cc1c(F)ccc(-c2csc3c(OC4C5COCC4CN(C(=O)OC4(C)CC4)C5)ncnc23)c1F (stereo not shown) [Example 49]
1.6 nM	N#Cc1ccc(-c2csc3c(OC4C5COCC4CN(CC(F)(F)C(F)(F)F)C5)ncnc23)c(F)c1 (stereo not shown) [Example 37]
1.4 nM	CC1(OC(=O)N2CC3COCC(C2)C3Oc2ncnc3c(-c4ccc(F)c(CO)c4F)csc23)CC1 (stereo not shown) [Example 48]
1.2 nM	CC1(OC(=O)N2CC3COCC(C2)C3Oc2ncnc3c(-c4ccc(F)cc4C#N)csc23)CC1 (stereo not shown) [Example 24]
1.1 nM	COc1ccc(-c2csc3c(OC4C5COCC4CN(C(=O)OC4(C)CC4)C5)ncnc23)c(F)c1 (stereo not shown) [Example 23]
1 nM	CS(=O)(=O)c1ccc(-c2csc3c(OC4C5COCC4CN(CC(F)(F)C(F)(F)F)C5)ncnc23)c(F)c1 (stereo not shown) [Example 33]
1 nM	Cn1cc(-c2ccc(S(C)(=O)=O)cc2F)c2ncnc(OC3C4COCC3CN(C(=O)OC3(C)CC3)C4)c21 (stereo not shown) [Example 42]
1 nM	CC1(OC(=O)N2CC3COCC(C2)C3Oc2ncnc3c(-c4ccc(O)cc4F)csc23)CC1 (stereo not shown) [Example 44]
1 nM	CC1(OC(=O)N2CC3COCC(C2)C3Oc2ncnc3c(-c4ccc(C#N)cc4)csc23)CC1 (stereo not shown) [Example 47]
0.76 nM	COc1ccc(-c2csc3c(OC4C5COCC4CN(C(=O)OC(C)C)C5)ncnc23)c(F)c1 (stereo not shown) [Example 27]
0.74 nM	COCc1ccc(-c2csc3c(OC4C5COCC4CN(C(=O)OC4(C)CC4)C5)ncnc23)c(F)c1 (stereo not shown) [Example 30]
0.65 nM	CC1(OC(=O)N2CC3COCC(C2)C3Oc2ncnc3c(-c4ccc(OCCO)cc4F)csc23)CC1 (stereo not shown) [Example 51]
0.51 nM	CC1(OC(=O)N2CC3COCC(C2)C3Oc2ncnc3c(-c4ncc(F)cc4F)csc23)CC1 (stereo not shown) [Example 40]
0.5 nM	CC(C)(O)COc1ccc(-c2csc3c(OC4C5COCC4CN(C(=O)OC4(C)CC4)C5)ncnc23)c(F)c1 (stereo not shown) [Example 52]
0.48 nM	CC1(OC(=O)N2CC3COCC(C2)C3Oc2ncnc3c(-c4ccc(CO)cc4F)csc23)CC1 (stereo not shown) [Example 29]
0.47 nM	CC1(OC(=O)N2CC3COCC(C2)C3Oc2ncnc3c(-c4ccc(S(C)(=O)=O)cc4F)csc23)CC1 (stereo not shown) [Example 41]
0.46 nM	COC(=O)c1ccc(-c2csc3c(OC4C5COCC4CN(C(=O)OC4(C)CC4)C5)ncnc23)c(F)c1 (stereo not shown) [Example 25]
0.44 nM	COc1ccc(-c2csc3c(OC4C5COCC4CN(C(=O)OC4(C)CC4)C5)ncnc23)c(Cl)c1 (stereo not shown) [Example 38]
0.38 nM	CCS(=O)(=O)c1ccc(-c2csc3c(OC4C5COCC4CN(C(=O)OC4(C)CC4)C5)ncnc23)cc1 (stereo not shown) [Example 43]
0.36 nM	Cc1ccc(-c2csc3c(OC4C5COCC4CN(C(=O)OC4(C)CC4)C5)ncnc23)c(F)c1 (stereo not shown) [Example 39]
0.1 nM	CC1(OC(=O)N2CC3COCC(C2)C3Oc2ncnc3c(-c4ccc(F)cc4Cl)csc23)CC1 (stereo not shown) [Example 45]
